Laboratory results reported in US20040077632A1, “Pharmaceutically active hydrophilic sulfonamide derivatives as inhibitors of protein junkinases” (priority 2000, published 2004).
pIC50: −log10 of the molar value. ≈ marks a conversion by molar mass, not a printed value.

Key:
JNK3 = JNK3 (Homo sapiens, UniProt P53779); assay: JNK3 in vitro assay (c-jun phosphorylation, 33P incorporation, SPA); assay type: biochemical; conditions: recombinant pre-activated GST-JNK3, biotinylated GST-c-Jun, 2 μM 33γ-ATP
Experimental: The phosphorylation of c-jun by JNK2 or JNK3 may be followed by monitoring the incorporation of ^33P into c-jun following the protocol below. The inhibitory activity of the compounds according to formula I, in respect of c-jun phosphorylation through JNK, is determined by calculating the phosphorylation activity of a JNK in the presence or absence of the test compounds according to formula I.
JNK3 and/or -2 assays are performed in 96 well MTT plates: incubation of 0.5 μg of recombinant, pre-activated GST-JNK3 or GST-JNK2 with 1 μg of recombinant, biotinylated GST-c-Jun and 2 μM ^33γ-ATP (2 nCi/μl), in the presence or absence of compounds according to formula I and in a reaction volume of 50 μl containing 50 mM Tris-HCl, pH 8.0; 10 mM MgCl2; 1 mM Dithiothreitol, and 100 μM NaVO4. The incubation is performed for 120 min. at R.T and stopped upon addition of 200 μl of a solution containing 250 μg of Streptavidine-coated SPA beads (Amersham, Inc.)*, 5 mM EDTA, 0.1% Triton X-100 and 50 μM ATP, in phosphate saline buffer. After incubation for 60 minutes at RT, beads are sedimented by centrifugation at 1500×g for 5 minutes, resuspended in 200 μl of PBS containing 5 mM EDTA, 0.1% Triton X-100 and 50 μM ATP and the radioactivity measured in a scintillation β counter, following sedimentation of the beads as described above. By replacing biotinylated GST-c Jun with biotinylated GST-1ATF2 or biotinylated myelin basic protein, this assay may also be used to measure inhibition of pre-activated p38 and ERK MAP Kinases, respectively.

[1] = Solubility in water at pH 7.4; assay type: physicochemical; conditions: aqueous buffer, pH 7.4, r.t.
Experimental: The compounds have been assessed in respect of their solubility in water, at a pH of 7.4 at room temeprature. In general the solubility of compounds of formula (I) is in a range of at least 50 μg/mL solvent, more preferably of at least 100 μg/mL solvent.

JNK3, sequence (P53779 whole entry): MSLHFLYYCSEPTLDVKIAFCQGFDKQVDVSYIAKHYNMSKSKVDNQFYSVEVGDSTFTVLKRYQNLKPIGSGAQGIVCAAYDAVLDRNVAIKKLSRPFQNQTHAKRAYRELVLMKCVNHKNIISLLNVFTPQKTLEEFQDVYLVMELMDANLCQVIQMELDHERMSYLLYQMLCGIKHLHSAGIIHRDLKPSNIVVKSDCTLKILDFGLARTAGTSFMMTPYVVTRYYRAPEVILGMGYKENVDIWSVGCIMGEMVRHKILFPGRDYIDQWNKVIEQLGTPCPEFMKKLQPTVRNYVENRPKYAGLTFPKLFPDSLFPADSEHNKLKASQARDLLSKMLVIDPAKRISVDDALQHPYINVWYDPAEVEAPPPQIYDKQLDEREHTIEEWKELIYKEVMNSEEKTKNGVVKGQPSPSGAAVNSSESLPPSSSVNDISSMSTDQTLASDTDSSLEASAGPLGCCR

Compound | pIC50 (JNK3) | solubility [1] [µg/mL]
COc1cccc(C(=O)NCc2cc(C(=O)O)c(S(=O)(=O)N3CCC(Nc4cccc(S(=O)(=O)C(F)(F)F)c4)CC3)s2)c1 [Example 1, 5-{[(3-methoxybenzoyl)amino]methyl}-2-[(4-{3-[(trifluoromethyl) -sulfonyl]anilino}piperidin-1-yl)sulfonyl]thiophene-3-carboxylic acid] | > 7.00 | 180 (≈ 272 µM)
COc1cccc(C(=O)NCc2cc(C(=O)O)c(S(=O)(=O)N3CCC(NCc4ccc(C(F)(F)F)cc4)CC3)s2)c1 [Example 4, 5-{[(3-methoxybenzoyl)amino]methyl}-2-[(4-{[4-(trifluoromethyl)benzyl]amino}-1-piperidinyl)sulfonyl]-3-thiophenecarboxylic acid] | > 7.00 | –
N-({4-(hydrazinocarbonyl)-5-[(4-{3-[(trifluoro-methyl)sulfonyl]anilino}piperidin-1-yl)sulfonyl]-thien-2-yl}methyl)-3-methoxybenzamide [Example 6] | > 7.00 | –
